# Experiments:
# [1] = Stroke statin response (SSR) in the CARE pravastatin trial: pravastatin-treated versus placebo-treated, by SNP genotype; format: in vivo, human; details: for EVENTS: stroke events in pravastatin arm
# [2] = Stroke statin response (SSR) in the PROSPER pravastatin trial: pravastatin-treated versus placebo-treated, by SNP genotype; format: in vivo, human
structure (smiles),measurement,setting,value
CC[C@H](C)C(=O)O[C@H]1C[C@H](O)C=C2C=C[C@H](C)[C@H](CC[C@@H](O)C[C@@H](O)CC(=O)O)[C@H]21 [pravastatin],EVENTS,"[1]; CARE, rs3213646 EXOD1, GEN, genotype CC, TOTAL 417",27
same,EVENTS,"[1]; CARE, rs3213646 EXOD1, GEN, genotype CT, TOTAL 691",24
same,EVENTS,"[1]; CARE, rs3213646 EXOD1, GEN, genotype TT, TOTAL 245",13
same,EVENTS,"[1]; CARE, rs3213646 EXOD1, REC, genotype CT + TT, TOTAL 936",37
same,EVENTS,"[1]; CARE, rs3900940 MYH15, DOM, genotype CT + CC, TOTAL 721",36
same,EVENTS,"[1]; CARE, rs3900940 MYH15, GEN, genotype CC, TOTAL 160",13
same,EVENTS,"[1]; CARE, rs3900940 MYH15, GEN, genotype CT, TOTAL 561",23
same,EVENTS,"[1]; CARE, rs3900940 MYH15, GEN, genotype TT, TOTAL 620",30
same,EVENTS,"[1]; CARE, rs3900940 MYH15, REC, genotype CT + TT, TOTAL 1181",53
same,HR,"[1]; pravastatin vs placebo, ENDPT4F1, hCV1463226 rs10890 FXN, GEN, genotype CC",0.48
same,HR,"[1]; pravastatin vs placebo, ENDPT4F1, hCV1463226 rs10890 FXN, GEN, genotype TT",0.41
same,HR,"[1]; pravastatin vs placebo, ENDPT4F1, hCV1846459 rs4803759, GEN, genotype CC",0.66
same,HR,"[1]; pravastatin vs placebo, ENDPT4F1, hCV1846459 rs4803759, GEN, genotype TC",0.62
same,HR,"[1]; pravastatin vs placebo, ENDPT4F1, hCV1846459 rs4803759, REC, genotype TC + CC",0.64
same,HR,"[1]; pravastatin vs placebo, ENDPT4F1, hCV2442143 rs12544854 ASAH1, DOM, genotype TC + TT, first listing (TOTAL 1070)",0.57
same,HR,"[1]; pravastatin vs placebo, ENDPT4F1, hCV2442143 rs12544854 ASAH1, DOM, genotype TC + TT, second listing (TOTAL 1059)",0.56
same,HR,"[1]; pravastatin vs placebo, ENDPT4F1, hCV2442143 rs12544854 ASAH1, GEN, genotype TC, first listing (TOTAL 713)",0.55
same,HR,"[1]; pravastatin vs placebo, ENDPT4F1, hCV2442143 rs12544854 ASAH1, GEN, genotype TC, second listing (TOTAL 704)",0.57
same,HR,"[1]; pravastatin vs placebo, ENDPT4F1, hCV2741051 rs2230806 ABCA1, DOM, genotype TC + TT, first listing (TOTAL 709)",0.47
same,HR,"[1]; pravastatin vs placebo, ENDPT4F1, hCV2741051 rs2230806 ABCA1, DOM, genotype TC + TT, second listing (TOTAL 711)",0.47
same,HR,"[1]; pravastatin vs placebo, ENDPT4F1, hCV2741051 rs2230806 ABCA1, GEN, genotype TC, first listing (TOTAL 597)",0.47
same,HR,"[1]; pravastatin vs placebo, ENDPT4F1, hCV2741051 rs2230806 ABCA1, GEN, genotype TC, second listing (TOTAL 603)",0.5
same,HR,"[1]; pravastatin vs placebo, ENDPT4F1, hCV2862873 rs780094 GCKR, DOM, genotype TC + TT",0.6
same,HR,"[1]; pravastatin vs placebo, ENDPT4F1, hCV2959482 rs3890182 ABCA1, DOM, genotype AG + AA",0.34
same,HR,"[1]; pravastatin vs placebo, ENDPT4F1, hCV2959482 rs3890182 ABCA1, GEN, genotype AG",0.34
same,HR,"[1]; pravastatin vs placebo, ENDPT4F1, hCV3216551 rs562338, GEN, genotype GG",0.59
same,HR,"[1]; pravastatin vs placebo, ENDPT4F1, hCV8757333 rs1800588 LIPC, DOM, genotype TC + TT",0.49
same,HR,"[1]; pravastatin vs placebo, ENDPT4F1, hCV8942032 rs1264352 DDR1, DOM, genotype CG + CC, risk allele C",0.41
same,HR,"[1]; pravastatin vs placebo, ENDPT4F1, hCV9296529 rs4358307, GEN, genotype GA",0.5
same,HR,"[1]; pravastatin vs placebo, ENDPT4F1, hCV9324316 rs9305020, GEN, genotype TT",0.7
same,HR,"[1]; pravastatin vs placebo, ENDPT4F1, hCV9324316 rs9305020, REC, genotype CT + TT",0.76
same,HR,"[1]; pravastatin vs placebo, ENDPT4F1, hCV9473891 rs1555173, REC, genotype CT + TT",0.75
same,HR,"[1]; pravastatin vs placebo, ENDPT4F1, hCV16164743 rs2928932, GEN, genotype AA",0.6
same,HR,"[1]; pravastatin vs placebo, ENDPT4F1, hCV16164743 rs2928932, GEN, genotype CC",0.31
same,HR,"[1]; pravastatin vs placebo, ENDPT4F1, hCV22275299 rs28927680 BUD13, GEN, genotype GC",0.2
same,HR,"[1]; pravastatin vs placebo, ENDPT4F1, hCV26682080 rs4420638, DOM, genotype GA + GG",0.45
same,HR,"[1]; pravastatin vs placebo, ENDPT4F1, hCV26682080 rs4420638, GEN, genotype GA",0.5
same,HR,"[1]; pravastatin vs placebo, ENDPT4F1, hCV26682080 rs4420638, GEN, genotype GG",0.25
same,HR,"[1]; pravastatin vs placebo, ENDPT4F1, hCV29480044 rs10516433 TSPAN5, GEN, genotype TC",0.46
same,HR,"[1]; pravastatin vs placebo, ENDPT4F1, hCV29480044 rs10516433 TSPAN5, REC, genotype TC + CC",0.67
same,HR,"[1]; pravastatin vs placebo, ENDPT4F1, hCV29566897 rs10507755, REC, genotype CT + TT",0.76
same,HR,"[1]; pravastatin vs placebo, ENDPT4F1, hCV30454150 rs10516434 TSPAN5, GEN, genotype TC",0.46
same,HR,"[1]; pravastatin vs placebo, ENDPT4F1, hCV30454150 rs10516434 TSPAN5, REC, genotype TC + CC",0.67
same,HR,"[1]; pravastatin vs placebo, ENDPT4F1, hDV77718013, REC, genotype TC + CC",0.74
same,HR,"[1]; rs1048621 (hCV1619596, SDCBP2), ALL, genotype AA, MODE GEN, ENDPT4F1, pravastatin vs placebo, CARE",0.16
same,HR,"[1]; rs1048621 (hCV1619596, SDCBP2), ALL, genotype AG + AA, MODE DOM, ENDPT4F1, pravastatin vs placebo, CARE",0.69
same,HR,"[1]; rs1048621 (hCV1619596, SDCBP2), ALL, genotype AG + GG, MODE REC, ENDPT4F1, pravastatin vs placebo, CARE",0.82
same,HR,"[1]; rs1048621 (hCV1619596, SDCBP2), ALL, genotype AG, MODE GEN, ENDPT4F1, pravastatin vs placebo, CARE",0.89
same,HR,"[1]; rs1048621 (hCV1619596, SDCBP2), ALL, genotype GG, MODE GEN, ENDPT4F1, pravastatin vs placebo, CARE",0.77
same,HR,"[1]; rs1264352 (hCV8942032, DDR1), genotype CC, MODE GEN, ENDPT4F1, pravastatin vs placebo, CARE",0.86
same,HR,"[1]; rs1264352 (hCV8942032, DDR1), genotype CG + CC, MODE DOM, ENDPT4F1, pravastatin vs placebo, CARE",0.41
same,HR,"[1]; rs1264352 (hCV8942032, DDR1), genotype CG + GG, MODE REC, ENDPT4F1, pravastatin vs placebo, CARE",0.73
same,HR,"[1]; rs1264352 (hCV8942032, DDR1), genotype CG, MODE GEN, ENDPT4F1, pravastatin vs placebo, CARE",0.39
same,HR,"[1]; rs1264352 (hCV8942032, DDR1), genotype GG, MODE GEN, ENDPT4F1, pravastatin vs placebo, CARE",0.84
same,HR,"[1]; rs2857595 (hCV16134786), ALL, genotype AA, MODE GEN, ENDPT4F1, pravastatin vs placebo, CARE",0.23
same,HR,"[1]; rs2857595 (hCV16134786), ALL, genotype AG + AA, MODE DOM, ENDPT4F1, pravastatin vs placebo, CARE",0.58
same,HR,"[1]; rs2857595 (hCV16134786), ALL, genotype AG + GG, MODE REC, ENDPT4F1, pravastatin vs placebo, CARE",0.77
same,HR,"[1]; rs2857595 (hCV16134786), ALL, genotype AG, MODE GEN, ENDPT4F1, pravastatin vs placebo, CARE",0.67
same,HR,"[1]; rs2857595 (hCV16134786), ALL, genotype GG, MODE GEN, ENDPT4F1, pravastatin vs placebo, CARE",0.8
same,HR,"[1]; rs11079160 (hCV32160712), ALL, genotype AA, MODE GEN, ENDPT4F1, pravastatin vs placebo, CARE",0.86
same,HR,"[1]; rs11079160 (hCV32160712), ALL, genotype TA + AA, MODE REC, ENDPT4F1, pravastatin vs placebo, CARE",0.78
same,HR,"[1]; rs11079160 (hCV32160712), ALL, genotype TA + TT, MODE DOM, ENDPT4F1, pravastatin vs placebo, CARE",0.55
same,HR,"[1]; rs11079160 (hCV32160712), ALL, genotype TA, MODE GEN, ENDPT4F1, pravastatin vs placebo, CARE",0.62
same,HR,"[1]; rs11079160 (hCV32160712), ALL, genotype TT, MODE GEN, ENDPT4F1, pravastatin vs placebo, CARE",0.24
same,HR,"[1]; rs12762303 (hCV27830265, ALOX5), genotype AA, MODE GEN, ENDPT4F1, pravastatin vs placebo, CARE, first listing (TOTAL 1005)",0.84
same,HR,"[1]; rs12762303 (hCV27830265, ALOX5), genotype AA, MODE GEN, ENDPT4F1, pravastatin vs placebo, CARE, second listing (TOTAL 1002)",0.85
same,HR,"[1]; rs12762303 (hCV27830265, ALOX5), genotype GA + AA, MODE REC, ENDPT4F1, pravastatin vs placebo, CARE, first listing (TOTAL 1381)",0.73
same,HR,"[1]; rs12762303 (hCV27830265, ALOX5), genotype GA + AA, MODE REC, ENDPT4F1, pravastatin vs placebo, CARE, second listing (TOTAL 1377)",0.73
same,HR,"[1]; rs12762303 (hCV27830265, ALOX5), genotype GA + GG, MODE DOM, ENDPT4F1, pravastatin vs placebo, CARE, first listing (TOTAL 399)",0.46
same,HR,"[1]; rs12762303 (hCV27830265, ALOX5), genotype GA + GG, MODE DOM, ENDPT4F1, pravastatin vs placebo, CARE, second listing (TOTAL 398)",0.46
same,HR,"[1]; rs12762303 (hCV27830265, ALOX5), genotype GA, MODE GEN, ENDPT4F1, pravastatin vs placebo, CARE, first listing (TOTAL 376)",0.47
same,HR,"[1]; rs12762303 (hCV27830265, ALOX5), genotype GA, MODE GEN, ENDPT4F1, pravastatin vs placebo, CARE, second listing (TOTAL 375)",0.47
same,HR,"[1]; rs12762303 (hCV27830265, ALOX5), genotype GG, MODE GEN, ENDPT4F1, pravastatin vs placebo, CARE, first listing (TOTAL 23)",0
same,HR,"[1]; rs12762303 (hCV27830265, ALOX5), genotype GG, MODE GEN, ENDPT4F1, pravastatin vs placebo, CARE, second listing (TOTAL 23)",0
same,"HR_RESP (hazard ratio, pravastatin-treated versus placebo-treated)","[2]; hCV2091644 rs1010 VAMP8, GENO_RESP CC + CT, MODE DOM, STRATA no hist",0.786
same,"HR_RESP (hazard ratio, pravastatin-treated versus placebo-treated)","[2]; hCV2169762 rs1804689 HPS1, GENO_RESP GG + GT, MODE REC, STRATA hist",1.028
same,"HR_RESP (hazard ratio, pravastatin-treated versus placebo-treated)","[2]; hCV2169762 rs1804689 HPS1, GENO_RESP TT + GT, MODE DOM, STRATA no hist",1.266
same,EVENTS_RESP,"[2]; hCV2169762 rs1804689 HPS1, GENO_RESP TT, MODE GEN, STRATA hist",5
same,"HR_RESP (hazard ratio, pravastatin-treated versus placebo-treated)","[2]; hCV29539757 rs10110659 KCNQ3, GENO_RESP CC + AC, MODE REC, STRATA hist",1.009

# — patent US11401555B2, “Genetic polymorphisms associated with stroke, methods of detection and uses thereof” (CELERA CORPORATION, priority 2008, dated 2022)
